Experimental findings from patent US11285142B2, “Compositions and methods for identifying and treating dystonia disorders” (DUKE UNIVERSITY, priority 2015, dated 2022) are described below.

Series [1] deals with Flp-In T-REx 293 cells expressing delta-E Torsin1a. Nature of the series: Cytotoxicity (cell count, cellular morphology) in the Torsin1a assay cell line. In kind it is cell-based, human. As to the method:
(§1) In order to test this model directly, the delta-E Torsin1a cell line was treated with compounds targeting the eIF2-alpha signaling pathway (FIG. 2). […] The following day, serial drug dilutions were prepared at 2× final concentration in assay media containing 10 μg/mL tetracycline and 30 μL of the drug/tetracycline mixture was added to the appropriate wells, while control wells received 30 μL of assay media alone or assay media+10 μg/mL tetracycline (final tetracycline concentration for all wells except negative controls: 5 μg/mL). Cells were then incubated at 37° C./5% CO^2 for 48 hours and fixed, permeabilized, Hoechst stained, and imaged as described above. The range of the Torsin1a localization effect was normalized to the percentage of cells with puncta in vehicle-treated delta-E cell line as the maximum and that in WT cell line as the minimum (FIG. 2, panels c-h). Cell count and EGFP-Torsin1a expression were normalized to their respective values in the vehicle-treated delta-E cell line as the maximum. All dose response data are the average of 4 independent experiments per dose. Untreated control data used for normalization are the average of 24 independent experiments.
(§2) Efficacy is calculated as the magnitude of the pathology correction relative to the mutant Torsin1a pathology. For example an efficacy=−100% would be equivalent to the WT TorsinA phenotype, and 0% would be equivalent to the Mutant TorsinA phenotype. CCv2 refers to the dose response Curve Class annotation, and AC refers to Active Concentration.

Test in series [2]: as above
In kind it is cell-based, human. The settings on record: human. The procedure:
as §1, §2

Series [3] relates to delta-E Torsin1a localization in Flp-In T-REx 293 cells expressing EGFP-delta-E Torsin1a. Kind of series: delta-E Torsin1a mis-localization assay (high-content imaging, % cells with EGFP puncta). Type of series: cell-based, human. As to the method:
To limit variation in expression levels associated with random integration or transient expression, single copies of either WT or delta-E human TOR1A cDNAs with N-terminal EGFP fusions were inserted at the FRT site in Flp-In™ T-Rex™ 293 cells (Thermo Fisher Scientific #R780-07) via flippase recombinase-mediated cassette exchange according to the manufacturer's recommended protocols.
The cells were maintained at 37° C./5% CO2. All experiments were performed on cells with fewer than 5 passages.
Torsin1a expression was also controlled by tetracycline induction to avoid selective pressure modifying the cellular phenotypes. […] The mutant phenotype was measured as the percentage of cells with one or more EGFP puncta using automated high-content imaging analysis (see infra).
The image analysis algorithm was developed using the Cellomics ArrayScan V CompartmentAnalysisV2 protocol. Hoechst's nuclear staining (Ch1: excitation 350 nm; emission 461 nm) was used for focusing and for cell identification by nuclear size, shape, and intensity. […] Detected cells were gated according to nuclear area, length-to-width ratio, and perimeter-to-area ratio. For the purpose of analysis, cell bodies were defined by a radius of 10 μm from the outer edge of the defined nucleus. Overlapping cells were automatically segmented according to the Cellomics ArrayScanV CompartmentAnalysisV2 object segmentation feature. EGFP fluorescence (Ch2: excitation 488 nm; emission 509 nm) was used for puncta detection. […] Torsin1a puncta were identified using the spot detection feature of the Compartmental AnalysisV2 protocol. The percentage of cells containing one or more puncta was used as the primary metric in this assay.
as §1

In another series the test system is ATF4. Nature of the series: Western blot of ATF4 in EGFP-delta-E Torsin1a assay cell line. Type of series: cell-based, human. Conditions: EGFP-ΔE Torsin1a cells, dose dependent. As to the method: (§3) Cells were harvested in RIPA buffer [150 mM NaCl/50 mM NaH2PO4/2 mM EDTA/l % Triton X-100/0.5% SDS/0.5% deoxycholic acid/50 mM NaF/10 mM Na4P2O7/1 mM Na3VO4/1× phosphatase inhibitor cocktail (Sigma #P5726)/1× cOmplete Mini EDTA-free protease inhibitor cocktail (Roche #04693159001)]. Total protein concentrations were assessed by BCA assay (Thermo Fisher Scientific #23225). Proteins were resolved on 4-15% TGX gels (Bio-Rad #5671085), transferred to nitrocelulose membrane, blocked in TBS-T+5% non-fat dry milk, and probed as indicated. (Primary antibodies employed in the examples of the disclosure are presented in Table 4.) ATF4 expression was normalized to […] expression. N=3 independent control cells lines and 4 independent DYT1 cell lines, 3 replicates each.
(§4) Western blot analyses were conducted to determine the effect of Lopinavir on ATF4, CreP, pEIF2-alpha, and β-actin abundance in EGFP-ΔE Torsin1a expression assay cell lines. […] This down regulation of CreP is in keeping with the HIV protease inhibitor mediated CreP regulation. (See De Gassart et al. PNAS 2015.)

A further series concerns CreP. Nature of the series: Western blot of CreP in EGFP-delta-E Torsin1a assay cell line. Type of series: cell-based, human. The settings on record: EGFP-ΔE Torsin1a cells, increasing concentration. The procedure:
as §3, §4
(In general: A western blot detects proteins with antibodies after separation by electrophoresis.)

The next series relates to EIF2-alpha. Kind of series: Western blot of phosphorylated eIF2-alpha in EGFP-delta-E Torsin1a assay cell line. Conditions: EGFP-ΔE Torsin1a cells, dose dependent. In kind it is cell-based, human. The procedure:
as §3, §4

For the next series, the system named is luciferase secretion. Nature of the series: C.Luc. Secretion Assay (luciferase secretion, secretory deficits). In kind it is cell-based. As to the method: We tested each shRNA for its ability to rescue a previously described defect in luciferase secretion. Chen, P. et al. (2010) Hum. Mol. Genet. 19, 3502-15; Cao, S. et al. (2010) Dis. Model. Mech. 3, 386-96; Barrows, N. J., et al., (2010)J. Biomol. Screen. 15, 735-47.) DYT1 patient data were obtained from 4 independent patient-derived lines and WT data (black bar) from 3 normal healthy control lines. Each line was tested in 5 independent experiments that included 4 technical replicates each (with the exception of SCD data from 3 independent experiments).
(Cao, S. et al. (2010) Dis. Model. Mech. 3, 386-96.) Subsequent testing of additional HIV protease inhibitors supported the activity of this class of compounds and generated favorable structure-activity relationship (SAR) data from which to design improved compounds (Tables 5 and 6). The results with a subset of compounds were also observed in a Luciferase secretion assay (Tables 5 and 6).

As for `Cc1cccc(C)c1OCC(=O)N[C@@H](Cc1ccccc1)[C@@H](O)C[C@H](Cc1ccccc1)NC(=O)[C@H](C(C)C)N1CCCNC1=O` [Lopinavir, lopinavir], the “Cytotox CC-v2 (dose response Curve Class)” value in series [1] (Table 6) is on record as −3. In series [1] (Table 6), the “Cytotox Efficacy” value is recorded as −69.87. Moreover, in series [1] (Table 6), the “Cytotox Max Resp” value is on record as −55.19. Further, the “toxicity (cell count, cellular morphology; in words)” value in series [1] (at effective concentrations) is “no cellular toxicity observed at effective doses”. The EC50 at 48 h in series [2] (Flp-In T-REx 293 cells inducibly expressing delta-E Torsin1a, Table 5, read-out: ΔE TorsinA Mislocalization Assay Cytotoxicity EC50) amounted to 37.2 µM. For the same compound, the AC50 worked out at 37.2 µM in series [2] (Table 6, read-out: Cytotox AC50) and 4.69 µM in series [3] (Homo sapiens, Flp-In-T-REx-293, Table 6, AC = Active Concentration, read-out: % pathology AC50). Besides, the EC50 in series [3] (Homo sapiens, Flp-In-T-REx-293, Table 5, read-out: ΔE TorsinA Mislocalization Assay Localization EC50) is 4.69 µM; in the series with luciferase secretion (Table 5), 0.98 µM. Further, the Emax in series [3] (Homo sapiens, Flp-In-T-REx-293, Table 5, read-out: ΔE TorsinA Mislocalization Assay Localization Max Efficacy) is 70%; with luciferase secretion (Table 5, read-out: C.Luc. Secretion Assay Secretion Max Efficacy) it was 177%. Also, the “% pathology Max Resp” value in series [3] (Table 6, normalized scale, WT-TorsinA line 0%, DYT1 mutant line 100% pathology) is reported as −89.03%. In addition, the “% pathology Efficacy” value in series [3] (Table 6, normalized scale, −100% = WT TorsinA phenotype, 0% = Mutant TorsinA phenotype) is given as −69.97%. The “effect on delta-E Torsin1a localization (in words)” value in series [3] (delta-E cell line, dose response) was “corrected TorsinA localization in a dose-dependent fashion”. In addition, the ATF4 abundance result in the series with ATF4 was “increases phosphorylation of EIF2-alpha and ATF4 abundance”. Besides, the “CreP abundance (steady state levels)” value is reported as “down-regulation of steady state levels” with CreP and “decreases CReP abundance” in the series on CreP (listed as lopinavir). In addition, in the series on EIF2-alpha, the “phosphorylation of EIF2-alpha” value was “increases phosphorylation of EIF2-alpha”. The “correction of secretory deficits (in words)” value in the series on luciferase secretion (orthogonal assays) is “corrected secretory deficits”.

For orientation: EC50 means the midpoint of the concentration-response curve. As usually defined, the AC50 is the midpoint of the concentration-response curve, whichever way the signal moves.
